In the NIST ThermoML archive (doi:10.1016/j.fluid.2004.12.005):
Values joined by “and” are separate entries in the source; they are usually repeats but may differ in a detail not shown here. Equal values may be shown once.

Legend:
[1] = Solid-liquid equilibrium temperature; settings: 100 kPa; Crystal; visual observation
[2] = excess molar enthalpy (molar enthalpy of mixing); xn = mol fraction of the nth substance listed; settings: Liquid, Flow calorimetry
[3] = activity coefficient (dimensionless); of the first substance listed, at infinite dilution; xn = mol fraction of the nth substance listed; settings: Liquid, Chromatography, x1 = 0

c1ccccc1 [benzene]
Settings | Solid-liquid equilibrium temperature [K]
[1] | 278.94

COC(C)=O [methyl ethanoate] + CCCCCCCCCC
[2]
Settings | excess molar enthalpy [kcal/mol]
363.15 K, 1582 kPa, x1 = 0.1148 | 0.164
363.15 K, 1582 kPa, x1 = 0.2149 | 0.282
363.15 K, 1582 kPa, x1 = 0.303 | 0.361
363.15 K, 1582 kPa, x1 = 0.3811 | 0.413
363.15 K, 1582 kPa, x1 = 0.4509 | 0.442
363.15 K, 1582 kPa, x1 = 0.5135 | 0.455
363.15 K, 1582 kPa, x1 = 0.5701 | 0.458
363.15 K, 1582 kPa, x1 = 0.6215 | 0.45
363.15 K, 1582 kPa, x1 = 0.6684 | 0.434
363.15 K, 1582 kPa, x1 = 0.7112 | 0.415
363.15 K, 1582 kPa, x1 = 0.7507 | 0.387
363.15 K, 1582 kPa, x1 = 0.787 | 0.356
363.15 K, 1582 kPa, x1 = 0.8206 | 0.321
363.15 K, 1582 kPa, x1 = 0.8518 | 0.283
363.15 K, 1582 kPa, x1 = 0.8808 | 0.242
363.15 K, 1582 kPa, x1 = 0.9079 | 0.199
363.15 K, 1582 kPa, x1 = 0.9331 | 0.152
363.15 K, 1582 kPa, x1 = 0.9568 | 0.103
363.15 K, 1582 kPa, x1 = 0.9791 | 0.0532
413.15 K, 1376 kPa, x1 = 0.1148 | 0.153
413.15 K, 1376 kPa, x1 = 0.2149 | 0.261
413.15 K, 1376 kPa, x1 = 0.303 | 0.335
413.15 K, 1376 kPa, x1 = 0.3811 | 0.385
413.15 K, 1376 kPa, x1 = 0.4509 | 0.416
413.15 K, 1376 kPa, x1 = 0.5136 | 0.431
413.15 K, 1376 kPa, x1 = 0.5702 | 0.434
413.15 K, 1376 kPa, x1 = 0.6215 | 0.427
413.15 K, 1376 kPa, x1 = 0.6684 | 0.413
413.15 K, 1376 kPa, x1 = 0.7113 | 0.396
413.15 K, 1376 kPa, x1 = 0.7507 | 0.37
413.15 K, 1376 kPa, x1 = 0.787 | 0.341
413.15 K, 1376 kPa, x1 = 0.8206 | 0.308
413.15 K, 1376 kPa, x1 = 0.8518 | 0.271
413.15 K, 1376 kPa, x1 = 0.8808 | 0.232
413.15 K, 1376 kPa, x1 = 0.9079 | 0.19
413.15 K, 1376 kPa, x1 = 0.9332 | 0.145
413.15 K, 1376 kPa, x1 = 0.9568 | 0.0981
413.15 K, 1376 kPa, x1 = 0.9791 | 0.0501

CCCCCCCCCC [decane] + CCOC(C)=O
[2]
Settings | excess molar enthalpy [kcal/mol]
363.15 K, 1397 kPa, x2 = 0.0952 | 0.112
363.15 K, 1397 kPa, x2 = 0.1817 | 0.198
363.15 K, 1397 kPa, x2 = 0.2607 | 0.261
363.15 K, 1397 kPa, x2 = 0.3332 | 0.304
363.15 K, 1397 kPa, x2 = 0.3998 | 0.333
363.15 K, 1397 kPa, x2 = 0.4614 | 0.349
363.15 K, 1397 kPa, x2 = 0.5183 | 0.356
363.15 K, 1397 kPa, x2 = 0.5712 | 0.355
363.15 K, 1397 kPa, x2 = 0.6205 | 0.347
363.15 K, 1397 kPa, x2 = 0.6665 | 0.335
363.15 K, 1397 kPa, x2 = 0.7095 | 0.316
363.15 K, 1397 kPa, x2 = 0.7499 | 0.292
363.15 K, 1397 kPa, x2 = 0.7878 | 0.266
363.15 K, 1397 kPa, x2 = 0.8234 | 0.236
363.15 K, 1397 kPa, x2 = 0.8571 | 0.202
363.15 K, 1397 kPa, x2 = 0.8888 | 0.167
363.15 K, 1397 kPa, x2 = 0.9189 | 0.129
363.15 K, 1397 kPa, x2 = 0.9473 | 0.0868
363.15 K, 1397 kPa, x2 = 0.9743 | 0.0437
413.15 K, 1342 kPa, x2 = 0.0952 | 0.116
413.15 K, 1342 kPa, x2 = 0.1817 | 0.204
413.15 K, 1342 kPa, x2 = 0.2607 | 0.268
413.15 K, 1342 kPa, x2 = 0.3332 | 0.314
413.15 K, 1342 kPa, x2 = 0.3998 | 0.346
413.15 K, 1342 kPa, x2 = 0.4614 | 0.363
413.15 K, 1342 kPa, x2 = 0.5183 | 0.371
413.15 K, 1342 kPa, x2 = 0.5713 | 0.372
413.15 K, 1342 kPa, x2 = 0.6205 | 0.363
413.15 K, 1342 kPa, x2 = 0.6665 | 0.351
413.15 K, 1342 kPa, x2 = 0.7095 | 0.329
413.15 K, 1342 kPa, x2 = 0.7499 | 0.306
413.15 K, 1342 kPa, x2 = 0.7878 | 0.277
413.15 K, 1342 kPa, x2 = 0.8234 | 0.244
413.15 K, 1342 kPa, x2 = 0.8571 | 0.209
413.15 K, 1342 kPa, x2 = 0.8888 | 0.171
413.15 K, 1342 kPa, x2 = 0.9189 | 0.131
413.15 K, 1342 kPa, x2 = 0.9473 | 0.0884
413.15 K, 1342 kPa, x2 = 0.9743 | 0.0466

CCCCCCCCCCCCCC(=O)OCC [ethyl tetradecanoate]
Settings | Solid-liquid equilibrium temperature
[1] | 286.33 K and 286.36 K

CC(=O)OC(C)C [1-methylethyl ethanoate] + CCCCCCCCCC
[3]
Settings | activity coefficient
303.16 K | 2.56
313.14 K | 2.48
323.17 K | 2.41
333.16 K | 2.36

CC(=O)OC(C)C [1-methylethyl ethanoate] + CCCCCCCCCCCC
[3]
Settings | activity coefficient
303.16 K | 2.82
313.17 K | 2.66
323.2 K | 2.52
333.16 K | 2.42
